Reference: patent US20020062499A1, “Methods for translational repression of gene expression in plants” (priority 2000, published 2002)

What was measured:
transgenic corn lines = assay: Field test of MS2 translation repression system transgenic corn lines; assay type: in vivo; settings: 32 oz/acre Roundup® at the 6-8 leaf stage; transgenic TRS corn lines
Protocol: Field tests are conducted to evaluate the vegetative tolerance and male sterility of transgenic corn lines selected from the greenhouse tests. Lines for the field trial are selected based on previous scores showing good to excellent vegetative tolerance, very high or complete male sterility induced by glyphosate, and available seed supply. The pedigree of plants in the field test is either [(Ro×B73)×B73] or (B73×Ro). Based on these pedigrees, it is expected that half of the plants in a plot would be killed by glyphosate (formulated Roundup®) application, because they would not contain the transgene.
The field test is set up in two blocks, each block containing four groups of plots that would receive a single spray treatment. The treatments are (1) no spray, (2) 32 oz/acre Roundup® at the 1-2 leaf stage, (3) 32 oz/acre Roundup® at the 4-5 leaf stage, and (4) 32 oz/acre Roundup® at the 6-8 leaf stage. Plants are scored for male fertility when they began to flower, and scoring is repeated every 1-2 days for about eight days. Observations included the length of time between emergence of the tassel from the first plants and from the last plant in each plot. A sample of the anthers is collected from each plant, and the viability of pollen is judged with the aid of a hand-held microscope.

[1] = tested on: non-transgenic parental control plant (M202); assay: Glyphosate treatment of non-transgenic parental control rice; assay type: in vivo; settings: 64 oz./A glyphosate
Excerpt: The anther-specific promoter P-Ta.1674-19 is amplified from wheat genomic DNA by Genome Walker™ as a HindIII/BglII fragment, digested with these two enzymes, and the fragment ligated into pMON42180 (FIG. 3) digested with the same enzymes, resulting in pMON52000. The plant expression vector pMON52001 (FIG. 27) is constructed by taking the Not I fragment containing of P-Ta. 1674-19/I-Zm.Hsp70/MS2. CP:en/T-AGRTU.nos from pMON52000 and ligating into pMON42916 (FIG. 7) digested with Not I. pMON42438 (FIG. 28) and pMON42439 (FIG. 29) are constructed by replacing the wheat P-Ta. 1674-19 promoter element of pMON52001 with corn anther-specific promoters P-700353038 and P-70053844, respectively. pMON42945 (FIG. 30) is constructed by ligating the Not I fragment consisting of P-L1482830/I-Zm.Hsp70/MS2.CP:en/T-AGRTU.nos into pMON42916. These promoter elements are isolated from wheat and corn anther DNA libraries by Genome Walker™. Rice variety M202 is transformed by Agrobacterium-mediated transformation. […] Vegetative tolerance to the glyphosate is visually evaluated 21 DAT (day after treatment) based on a scale of 0 to 5 (as discussed above). […] Male sterility is scored at maturity by counting the number of empty florets and dividing by the total number of florets (filled plus empty) in each panicle.

O=C(O)CNCP(=O)(O)O [glyphosate, N-phosphonomethylglycine]
male sterility under field conditions (transgenic corn lines): very effective for producing male sterility
effect of the glyphosate treatment on the non-transgenic parental control plant [1]: killed
